Measurements as given in patent US20200095296A1, “USE OF PEPTIDES AS BIOMARKERS IN THE DIAGNOSIS, CONFIRMATION AND TREATMENT OF A NEUROLOGICAL DISORDER AND TCR AND/OR HLA IMMUNOPROFILING IN NEURODEGENERATIVE DISEASE” (THE TRUSTEES OF COLUMBIA UNIVERSITY IN THE CITY OF NEW YORK, priority 2017, published 2020).
Numbering of substitutions follows the chain as printed. Read-outs that look alike come from different tables or passages of the source.

Experiments:
DPB1*04:01 = molecular target: T1, DPB1*04:01 (Homo sapiens, UniProt P04440); test: competition binding assay, purified HLA DPB1*04:01
T1 sequence (P04440 30-258): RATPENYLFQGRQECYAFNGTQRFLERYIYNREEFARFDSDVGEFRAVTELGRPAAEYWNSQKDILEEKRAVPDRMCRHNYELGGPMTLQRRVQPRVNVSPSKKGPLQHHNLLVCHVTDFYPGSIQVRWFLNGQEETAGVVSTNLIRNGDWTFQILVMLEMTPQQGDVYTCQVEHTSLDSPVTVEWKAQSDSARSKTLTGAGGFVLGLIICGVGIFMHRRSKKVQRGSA
T1 sequence (P20036 29-260 partner): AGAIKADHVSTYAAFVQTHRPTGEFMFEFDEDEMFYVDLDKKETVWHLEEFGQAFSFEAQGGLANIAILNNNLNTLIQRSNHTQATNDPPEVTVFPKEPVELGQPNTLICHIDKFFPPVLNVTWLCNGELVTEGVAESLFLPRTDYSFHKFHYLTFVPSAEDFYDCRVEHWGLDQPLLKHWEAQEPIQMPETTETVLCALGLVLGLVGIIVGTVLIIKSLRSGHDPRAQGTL

DPB1*04:02 = molecular target: T2, DPB1*04:02 (Homo sapiens, UniProt P04440+P20036, A65V/A84D/A85E/L207M); test: competition binding assay, purified HLA DPB1*04:02
T2 sequence (P04440 30-258 A65V/A84D/A85E/L207M): T1 sequence (P04440 30-258) with A36V, A55D, A56E, L178M
T2 sequence (P20036 29-260): T1 sequence (P20036 29-260 partner)

DRB1*04:01 = DRB1*04:01 (Homo sapiens, UniProt P01903+P01911, A100K/A169T/F76Y/I96L/K127E/L162R/M171V/N62H/P40V/Q125Y/R42H/S133A/S149N/S66Y/V115G/V209L/W38E); test: competition binding assay, purified HLA DRB1*04:01; settings: radiolabeled peptide competition, nM
DRB1*15:01 = DRB1*15:01 (Homo sapiens, UniProt P01903+P01911); test: competition binding assay, purified HLA DRB1*15:01
DRB3*01:01 = DRB3*01:01 (Homo sapiens, UniProt P01903+P79483); test: competition binding assay, purified HLA DRB3*01:01; settings: radiolabeled peptide competition, nM
DRB3*02:02 = DRB3*02:02 (Homo sapiens, UniProt P01903+P79483, A212P/D57E/F66Y/L67A/R103Q/R218S/R40L/S89Y/T80R/V86D/Y55F/Y59H); test: competition binding assay, purified HLA DRB3*02:02
[1] = purified HLA, radiolabeled peptide competition, nM, read-out: binding to DRB3*02:02 (IC50)

Row | IC50 (DPB1*04:01; purified HLA, radiolabeled peptide competition, nM, read-out: binding to DPB1*04:01 (IC50)) | IC50 (DPB1*04:02; purified HLA, radiolabeled peptide competition, nM, read-out: binding to DPB1*04:02 (IC50)) | IC50 (DRB1*15:01; purified HLA, radiolabeled peptide competition, nM, read-out: binding to DRB1*15:01 (IC50)) | Structure (SMILES) | IC50 (DRB1*04:01) | IC50 (DRB3*01:01) | IC50 (DRB3*02:02; [1]) | IC50 (DPB1*04:01) | IC50 (DPB1*04:02) | IC50 (DRB1*15:01) | IC50 (DRB3*02:02)
1 | > 10000 nM | > 10000 nM | > 10000 nM | CSCC[C@H](NC(=O)[C@H](CCC(=O)O)NC(=O)[C@H](Cc1ccc(O)cc1)NC(=O)[C@H](C)NC(=O)[C@H](CCC(=O)O)NC(=O)[C@H](CC(N)=O)NC(=O)[C@@H](N)CC(=O)O)C(=O)N1CCC[C@H]1C(=O)N[C@@H](COP(=O)(O)O)C(=O)N[C@@H](CCC(=O)O)C(=O)N[C@@H](CCC(=O)O)C(=O)NCC(=O)N[C@@H](Cc1ccc(O)cc1)C(=O)N[C@@H](CCC(N)=O)C(=O)N[C@@H](CC(=O)O)C(=O)O | 9130 nM | 9180 nM | > 10000 nM | – | – | – | –
2 | – | – | – | CSCC[C@H](NC(=O)[C@@H](N)CCC(=O)O)C(=O)N1CCC[C@H]1C(=O)N[C@@H](COP(=O)(O)O)C(=O)N[C@@H](CCC(=O)O)C(=O)N[C@@H](CCC(=O)O)C(=O)NCC(=O)N[C@@H](Cc1ccc(O)cc1)C(=O)N[C@@H](CCC(N)=O)C(=O)N[C@@H](CC(=O)O)C(=O)N[C@@H](Cc1ccc(O)cc1)C(=O)N[C@@H](CCC(=O)O)C(=O)N1CCC[C@H]1C(=O)N[C@@H](CCC(=O)O)C(=O)N[C@@H](C)C(=O)O | 4950 nM | > 10000 nM | > 10000 nM | > 10000 nM | > 10000 nM | – | –
3 | – | – | – | CSCC[C@H](NC(=O)[C@H](CCC(=O)O)NC(=O)[C@H](Cc1ccc(O)cc1)NC(=O)[C@H](C)NC(=O)[C@H](CCC(=O)O)NC(=O)[C@H](CC(N)=O)NC(=O)[C@@H](N)CC(=O)O)C(=O)N1CCC[C@H]1C(=O)N[C@@H](CO)C(=O)N[C@@H](CCC(=O)O)C(=O)N[C@@H](CCC(=O)O)C(=O)NCC(=O)N[C@@H](Cc1ccc(O)cc1)C(=O)N[C@@H](CCC(N)=O)C(=O)N[C@@H](CC(=O)O)C(=O)O | – | – | – | > 10000 nM | > 10000 nM | > 10000 nM | > 10000 nM
